US20260356957A1, “METHODS FOR TREATMENT OF NON-SMALL CELL LUNG CANCER (NSCLC)” (Janssen Biotech, Inc., priority 2023, published 2026)
Where “and” joins values, the source holds several entries; their conditions need not be identical. Equal values may be shown once. Entries after “also recorded” stand apart in the source; their conditions may differ.

Assays:
Type in all cases: in vivo, human
[1] = tested on: EGFR-mutated locally advanced or metastatic NSCLC; assay: MARIPOSA Phase 3, objective response by BICR (RECIST v1.1)
[2] = tested on: EGFR-mutant (Ex19del/L858R) advanced NSCLC; assay: MARIPOSA Phase 3, PFS in high-risk subgroups
Method: Key Eligibility Criteria: locally advanced or metastatic NSCLC, treatment-naïve for advanced disease, documented EGFR Ex19del or L858R, and ECOG PS 0 or 1. […] High-risk subgroups analyzed: liver metastases, brain metastases, TP53 co-mutation, detectable EGFRm ctDNAd at baseline, and without EGFRm ctDNAd clearance at C3D1 (Week 9) (FIG. 16). Detection of ctDNA and co-mutations were analyzed by next-generation sequencing (NGS) of blood at baseline. Detection and clearance of Ex19del and L858R ctDNA in blood were analyzed with ddPCR at baseline and C3D1.

[3] = tested on: EGFR-mutated locally advanced or metastatic NSCLC; assay: MARIPOSA Phase 3, duration of response by BICR
[4] = tested on: EGFR-mutated locally advanced or metastatic NSCLC; assay: MARIPOSA Phase 3, overall survival; details: for Median overall survival (95% CI): interim analysis
[5] = tested on: EGFR-mutated locally advanced or metastatic NSCLC; assay: MARIPOSA Phase 3, time to symptomatic progression (TTSP)
[6] = tested on: EGFR-mutated locally advanced or metastatic NSCLC; assay: MARIPOSA Phase 3, progression-free survival after first subsequent therapy (PFS2)
Source text: The efficacy population included all patients who had undergone randomization. Tick marks indicate censoring of data. […]

[7] = tested on: EGFR-mutated NSCLC with brain metastasis; assay: MARIPOSA Phase 3, intracranial PFS by BICR in participants with history of brain metastasis
Source text: • 1. […] Intracranial PFS [Time Frame: Up to approximately 42 months]. […] Incidence and Severity of Adverse Events (AEs) [Time Frame: Up to approximately 60 months]. Incidence and severity of treatment emergent adverse events (TEAEs) will be reported. Any adverse event occurring at or after the initial administration of study treatment through the day of last dose plus 30 days, or until the start of subsequent anticancer therapy (if earlier), is considered to be treatment emergent. • 8. Number of Participants with Clinical Laboratory Abnormalities [Time Frame: Up to approximately 60 months]. Number of participants with clinical laboratory abnormalities (serum chemistry, hematology, blood coagulation, and urine samples) will be reported. • 9. Number of Participants with Vital Signs Abnormalities [Time Frame: Up to approximately 60 months]. Number of participants with vital signs abnormalities (temperature, heart rate, respiratory rate, oxygen saturation, blood pressure) will be reported. • 10. Number of Participants with Physical Examination Abnormalities [Time Frame: Up to approximately 60 months]. Number of participants with physical examination abnormalities will be reported. • 11. […] Number of Participants with Anti-Amivantamab Antibodies [Time Frame: Up to approximately 42 months]. […] Change from Baseline in Non-Small Cell Lung Cancer-Symptom Assessment Questionnaire (NCSLC-SAQ) [Time Frame: Baseline Up to approximately 42 months]. The NSCLC-SAQ contains 7 items that assess cough, pain, dyspnea, fatigue, and poor appetite over a 7-day recall period. Each multi-item scale and individual item will be summarized using count and percent by visit. • 15. Change from Baseline in European Organization of Research and Treatment of Cancer Quality of Life Questionnaire Core 30 (EORTC-QLQ-C30) [Time Frame: Baseline Up to approximately 42 months]. EORTC-QLQ-C30 is a core 30-item questionnaire for evaluating the health-related quality of life (HRQOL) of participants participating in cancer clinical studies. • 16.

Ex19del and L858R ctDNA = assay: MARIPOSA Phase 3, EGFRm ctDNA in blood by ddPCR; details: patients with matched samples
Method: Detection of circulating tumor (ctDNA) and co-mutations were analyzed by next-generation sequencing (NGS) of blood at baseline.
Detectable EGFRm ctDNA at Baseline and On Treatment: Detection and clearance of Ex19del and L858R ctDNA in the blood were analyzed by ddPCR (Ex19del or L858R by Biodesix ddPCR).

[8] = tested on: EGFR-mutated locally advanced or metastatic NSCLC; assay: MARIPOSA Phase 3, progression-free survival by BICR; details: for Median progression-free survival (95% CI): median follow-up 22.0 months
Source text: The primary endpoint of the study is PFS (using RECIST v1.1 guidelines) as assessed by blinded independent central review (BICR).

C=CC(=O)Nc1cc(Nc2nccc(-c3cn(C)c4ccccc34)n2)c(OC)cc1N(C)CCN(C)C [Osimertinib]
Best overall response: Not evaluable [1]: 11 (3) no. (%) | Best overall response: Progressive disease [1]: 11 (3) no. (%) | Best overall response: Stable disease [1]: 42 (10) no. (%) | Best overall response: Complete response ([1]; all responders): 15 (4) no. (%) | Best overall response: Partial response ([1]; all responders): 335 (81) no. (%) | Complete Response (CR) ([1]; best overall response): 15 (3.0%) (%) | Not Evaluable (NE) ([1]; best overall response): 11 (2.7%) (%) | Partial Response (PR) ([1]; best overall response): 335 (80.9%) (%) | Progressive Disease (PD) ([1]; best overall response): 11 (2.7%) (%) | Objective response rate, Patients (95% CI), all responders ([1]; measurable disease at baseline): 85 (81-88) % | Objective response, Patients (95% CI) including only confirmed responders ([1]; measurable disease at baseline): 76 (71-80) % | Objective response rate (CR + PR) ([1]; measurable disease at baseline, RECIST v1.1): 350 (84.5%) (%) | Objective response rate, Patients (95% CI), all responders ([1]; measurable disease at baseline, listed as osimertinib): 85% | Median PFS ([2]; detectable baseline ctDNA, Biodesix ddPCR): 14.8 months | Median PFS ([2]; wild-type TP53 at baseline): 19.9 months | Median PFS ([2]; with TP53 co-mutations at baseline): 12.9 months | Median PFS ([2]; with brain metastases at baseline): 13.0 months | Median PFS ([2]; with cleared ctDNA at C3D1, Biodesix ddPCR): 16.5 months | Median PFS ([2]; with liver metastases at baseline): 11.0 months | Median PFS ([2]; without brain metastases at baseline): 19.9 months | Median PFS ([2]; without cleared ctDNA at C3D1, Biodesix ddPCR): 9.1 months | Median PFS ([2]; without detectable baseline ctDNA, Biodesix ddPCR): 21.9 months | Median PFS ([2]; without liver metastases at baseline): 18.3 months | Response duration, Median (95% CI) among all responders [3]: 14.9 (12.9-17.5) mo | Response duration, Median (95% CI) among confirmed responders [3]: 16.8 (14.8-18.5) mo | Censored (DOR) ([3]; confirmed responders): 151 (48.1%) (%) | DOR time to event, 25th percentile (95% CI) ([3]; confirmed responders): 9.26 (9.13, 10.25) months | Duration of response >=6 months ([3]; confirmed responders): 267 (65.0%) (%) | Duration of response >=12 months ([3]; confirmed responders): 181 (57.6%) (%) | Duration of response >=18 months ([3]; confirmed responders): 86 (27.4%) (%) | Duration of response >=24 months ([3]; confirmed responders): 21 (6.7%) (%) | Event (DOR) ([3]; confirmed responders): 163 (51.9%) (%) | Median duration of response (95% CI) ([3]; confirmed responders): 16.76 (14.75, 18.53) months | DOR time to event, 75th percentile (95% CI) ([3]; confirmed responders, NE = not estimable): NE (NE, NE) | Median duration of response (95% CI) ([3]; confirmed responders, listed as osimertinib): 16.8 months | Confirmed Responders (Confirmed CR + Confirmed PR) ([3]; number of patients, measurable disease at baseline): 314 | Censored (OS) ([4]; Full Analysis Set): 312 (72.7%) (%) | Event (OS) ([4]; Full Analysis Set): 117 (27.3%) (%) | OS 6-month event-free rate (95% CI) ([4]; Full Analysis Set): 0.96 (0.93, 0.97) | OS 12-month event-free rate (95% CI) ([4]; Full Analysis Set): 0.88 (0.85, 0.91) | OS 18-month event-free rate (95% CI) ([4]; Full Analysis Set): 0.79 (0.75, 0.83) | OS 30-month event-free rate (95% CI) ([4]; Full Analysis Set): 0.62 (0.52, 0.70) | OS time to event, 25th percentile (95% CI) ([4]; Full Analysis Set): 20.30 (18.00, 23.59) months | OS time to event, 75th percentile (95% CI) ([4]; NE = not estimable): NE (NE, NE) | Overall survival, Patients (95% CI) at 12 months ([4]; efficacy population): 88 (85-91) % | Overall survival, Patients (95% CI) at 18 months ([4]; efficacy population): 79 (75-83) % | Overall survival, Patients (95% CI) at 24 months ([4]; efficacy population): 69 (64-74) % | Median overall survival (95% CI) ([4]; NE = not estimable): NE (NE, NE) | Median overall survival (95% CI) ([4]; NE = not estimable, listed as osimertinib): not reached; also recorded: could not be estimated | Censored (TTSP) ([5]; Full Analysis Set): 202 (61.1%) (%) | Death without Symptomatic PD ([5]; Full Analysis Set): 49 (11.4%) (%) | Event (TTSP) ([5]; Full Analysis Set): 167 (38.9%) (%) | Symptomatic PD ([5]; Full Analysis Set): 118 (27.5%) (%) | TTSP 6-month event-free rate (95% CI) ([5]; Full Analysis Set): 0.90 (0.87, 0.93) | TTSP 12-month event-free rate (95% CI) ([5]; Full Analysis Set): 0.79 (0.74, 0.82) | TTSP 18-month event-free rate (95% CI) ([5]; Full Analysis Set): 0.67 (0.63, 0.72) | TTSP 24-month event-free rate (95% CI) ([5]; Full Analysis Set): 0.59 (0.53, 0.64) | TTSP 30-month event-free rate (95% CI) ([5]; Full Analysis Set): 0.49 (0.40, 0.58) | TTSP Median (95% CI) ([5]; NE = not estimable): 29.31 (29.31, NE) months | TTSP time to event, 75th percentile (95% CI) ([5]; NE = not estimable): NE (NE, NE) | Censored (PFS2) ([6]; Full Analysis Set): 299 (60.7%) (%) | Event (PFS2) ([6]; Full Analysis Set): 130 (30.3%) (%) | PFS2 6-month event-free rate (95% CI) ([6]; Full Analysis Set): 0.95 (0.93, 0.97) | PFS2 18-month event-free rate (95% CI) ([6]; Full Analysis Set): 0.76 (0.71, 0.80) | PFS2 30-month event-free rate (95% CI) ([6]; Full Analysis Set): 0.56 (0.46, 0.66) | PFS2 Median (95% CI) ([6]; Full Analysis Set): NE (29.31, NE) | PFS2 time to event, 25th percentile (95% CI) ([6]; Full Analysis Set): 18.40 (15.93, 20.50) months | PFS2 time to event, 75th percentile (95% CI) ([6]; NE = not estimable): NE (NE, NE) | Event (intracranial PFS) [7]: 75 (43.6%) (%) | Intracranial PFS 6-month event-free rate (95% CI) [7]: 0.88 (0.82, 0.92) | Intracranial PFS time to event, 75th percentile (95% CI) ([7]; NE = not estimable): NE (NE, NE) | Detectable EGFRm ctDNA at C3D1 (Week 9) (Ex19del and L858R ctDNA): 15% | PFS 6-month event-free rate (95% CI) [8]: 0.85 (0.83, 0.88) | PFS 18-month event-free rate (95% CI) [8]: 0.48 (0.43, 0.53) | PFS 24-month event-free rate (95% CI) [8]: 0.34 (0.26, 0.39) | PFS 30-month event-free rate (95% CI) [8]: 0.30 (0.24, 0.36) | Censored (PFS) ([8]; Full Analysis Set): 177 (41.3%) (%) | Event (PFS) ([8]; Full Analysis Set): 252 (58.7%) (%) | PFS time to event, 25th percentile (95% CI) ([8]; Full Analysis Set): 9.23 (7.49, 10.94) months | PFS time to event, 75th percentile (95% CI) ([8]; Full Analysis Set): NE (27.50, NE) | Progression-free survival, Patients (95% CI) at 12 months ([8]; efficacy population): 65 (60-69) % | Progression-free survival, Patients (95% CI) at 18 months ([8]; efficacy population): 48 (43-53) % | Progression-free survival, Patients (95% CI) at 24 months ([8]; efficacy population): 34 (28-39) % | Median progression-free survival (95% CI) [8]: 16.59 (14.78, 18.46) months | Median progression-free survival (95% CI) ([8]; listed as osimertinib): 16.6 months and 16.59 months
